Measurements as given in patent publication US6346098B1, “Methods and kits for locally administering an active agent to an interstitial space of a host” (The Board of Trustees of the Leland Stanford Junior …, priority 2000, dated 2002).

Columns and labels:
[1] = total group of 13 pigs, coronary venous injection
[2] = Coronary venous injection of Evans Blue dye via AIV or MCV, regional myocardial infiltration; type: in vivo, pigs; settings: LV apex, anterior interventricular septum and anterior wall via AIV, inferoposterior wall via MCV
Method: Methods and Results: In 13 anesthetized pigs the coronary sinus was cannulated percutaneously and a balloon-tipped catheter was advanced to the anterior interventricular vein (AIV) or middle cardiac vein (MCV). […] Injection was performed with hyperbaric pressure in 8/13 cases (61%).

Row | Compound | persistence of contrast in myocardium (videodensitometric analysis) [1] | time for 50% clearance from myocardium (videodensitometric analysis) ([1]; FIG. 1) [min] | infiltration of targeted myocardial regions [2]
1 | CC(=O)Nc1c(I)c(NC(C)=O)c(I)c(C(=O)O)c1I [diatrizoate] | at least 30 minutes | ~4 | 
2 | Cc1cc(-c2ccc(/N=N/c3ccc4c(S(=O)(=O)O)cc(S(=O)(=O)O)c(N)c4c3O)c(C)c2)ccc1/N=N/c1ccc2c(S(=O)(=O)O)cc(S(=O)(=O)O)c(N)c2c1O [Evans Blue dye, Evans Blue] |  |  | localized, regional infiltration was reproducibly accomplished
